Measured values taken from patent US4248863A, “Antibiotics saframycins A, B, C, D and E and process for producing the same” (priority 1977, dated 1981).
Values after ≈ are worked out from the molar mass of the structure shown.

What was measured:
Salmonella typhimurium = assay: Antimicrobial spectrum, MIC (Table 4); type: cell-based; details: 1% glucose nutrient agar, 37° C., 24 or 48 hours
Mycobacterium avium = assay: Antimicrobial spectrum, MIC (Table 4); type: cell-based; details: 3% glycerol nutrient agar for acid-fast bacteria, 37° C., 24 or 48 hours
Aspergillus oryzae = assay: Antimicrobial spectrum, MIC (Table 4); details: Sabouraud.dextrose.agar, 27° C., 48 hours
[1] = tested on: Shigella dysenteriae Shiga; assay: microbe, parasite or virus in culture; type: cell-based; details: 1% glucose nutrient agar, 37° C., 24 or 48 hours
[2] = tested on: Trichophyton mentagrophytes; assay: Antimicrobial spectrum, MIC (Table 4); details: Sabouraud.dextrose.agar, 27° C., 72 hours
[3] = tested on: Staphylococcus aureus Smith; assay: Antimicrobial spectrum, MIC (Table 4); type: cell-based; details: 1% glucose nutrient agar, 37° C., 24 or 48 hours
Micrococcus luteus = assay: Antimicrobial spectrum, MIC (Table 4); type: cell-based; details: 1% glucose nutrient agar, 37° C., 24 or 48 hours
[4] = tested on: Streptococcus pyogenes 090R; assay: Antimicrobial spectrum, MIC (Table 4); type: cell-based; details: blood agar, 37° C., 24 or 48 hours
Staphylococcus albus = assay: Antimicrobial spectrum, MIC (Table 4); type: cell-based; details: 1% glucose nutrient agar, 37° C., 24 or 48 hours
[5] = tested on: Staphylococcus aureus 209P; assay: Antimicrobial spectrum, MIC (Table 4); type: cell-based; details: 1% glucose nutrient agar, 37° C., 24 or 48 hours
Mucor mucedo = assay: Antimicrobial spectrum, MIC (Table 4); details: Sabouraud.dextrose.agar, 27° C., 48 hours
Staphylococcus citreus = assay: Antimicrobial spectrum, MIC (Table 4); type: cell-based; details: 1% glucose nutrient agar, 37° C., 24 or 48 hours
Rhodotorula glutinis = assay: Antimicrobial spectrum, MIC (Table 4); details: Sabouraud.dextrose.agar, 27° C., 48 hours
Nocardia asteroides = assay: Antimicrobial spectrum, MIC (Table 4); type: cell-based; details: 37° C., 24 or 48 hours
Candida albicans = assay: Antimicrobial spectrum, MIC (Table 4); details: Sabouraud.dextrose.agar, 27° C., 48 hours
Bacillus cereus = assay: Antimicrobial spectrum, MIC (Table 4); type: cell-based; details: 1% glucose nutrient agar, 37° C., 24 or 48 hours
Corynebacterium xerosis = assay: Antimicrobial spectrum, MIC (Table 4); type: cell-based; details: 1% glucose nutrient agar, 37° C., 24 or 48 hours
Brucella abortus = assay: microbe, parasite or virus in culture; type: cell-based; details: blood agar, 37° C., 24 or 48 hours
Bacillus subtilis = assay: Antimicrobial spectrum, MIC (Table 4); type: cell-based; details: 1% glucose nutrient agar, 37° C., 24 or 48 hours
Saccharomyces cerevisiae = assay: Antimicrobial spectrum, MIC (Table 4); details: Sabouraud.dextrose.agar, 27° C., 48 hours
Mycobacterium phlei = assay: Antimicrobial spectrum, MIC (Table 4); type: cell-based; details: 3% glycerol nutrient agar for acid-fast bacteria, 37° C., 24 or 48 hours
Aspergillus niger = assay: Antimicrobial spectrum, MIC (Table 4); details: Sabouraud.dextrose.agar, 27° C., 48 hours
Klebsiella pneumoniae = assay: Antimicrobial spectrum, MIC (Table 4); type: cell-based; details: 1% glucose nutrient agar, 37° C., 24 or 48 hours
Pseudomonas aeruginosa = assay: Antimicrobial spectrum, MIC (Table 4); type: cell-based; details: 1% glucose nutrient agar, 37° C., 24 or 48 hours
Mycobacterium sp. 607 = assay: Antimicrobial spectrum, MIC (Table 4); type: cell-based; details: 3% glycerol nutrient agar for acid-fast bacteria, 37° C., 24 or 48 hours
Serratia marcescens = assay: Antimicrobial spectrum, MIC (Table 4); type: cell-based; details: 1% glucose nutrient agar, 37° C., 24 or 48 hours
Streptococcus faecalis = assay: Antimicrobial spectrum, MIC (Table 4); type: cell-based; details: 1% glucose nutrient agar, 37° C., 24 or 48 hours
[6] = tested on: Corynebacterium dephtheriae; assay: Antimicrobial spectrum, MIC (Table 4); type: cell-based; details: 1% glucose nutrient agar, 37° C., 24 or 48 hours
[7] = tested on: Staphylococcus salivarius; assay: Antimicrobial spectrum, MIC (Table 4); type: cell-based; details: 1% glucose nutrient agar, 37° C., 24 or 48 hours
Escherichia coli = assay: Antimicrobial spectrum, MIC (Table 4); type: cell-based; details: 1% glucose nutrient agar, 37° C., 24 or 48 hours
Penicillium glaucum = assay: Antimicrobial spectrum, MIC (Table 4); details: Sabouraud.dextrose.agar, 27° C., 48 hours
Streptococcus pyogenes = assay: Antimicrobial spectrum, MIC (Table 4); type: cell-based; details: blood agar, 37° C., 24 or 48 hours

SMILES	MIC (Salmonella typhimurium) [µg/mL]	MIC (Mycobacterium avium) [µg/mL]	Solubility (Solubility; acetone)	Solubility (Solubility; chloroform)	Solubility (Solubility; esters)	Solubility (Solubility; lower alcohols)	Solubility (Solubility; n-hexane)	Solubility (Solubility; water)	MIC (Aspergillus oryzae) [µg/mL]	MIC [1] [µg/mL]	MIC [2] [µg/mL]	MIC [3] [µg/mL]	MIC (Micrococcus luteus) [µg/mL]	MIC (Staphylococcus albus) [µg/mL]	MIC [5] [µg/mL]	MIC (Mucor mucedo) [µg/mL]	MIC (Staphylococcus citreus) [µg/mL]	MIC (Rhodotorula glutinis) [µg/mL]	MIC (Nocardia asteroides) [µg/mL]	MIC (Candida albicans) [µg/mL]	further results
COC1=C(C)C(=O)C2=C(C1=O)[C@@H]1[C@@H]3CC4=C(C(=O)C(OC)=C(C)C4=O)[C@H](CNC(=O)C(C)=O)N3C[C@H]([C@H]2OC)N1C [saframycin C]	> 100.0	> 100.0	Easily soluble	Easily soluble	Easily soluble	Easily soluble	Insoluble	Insoluble	> 100.0	> 100.0	> 100.0	6.25 (≈ 11 µM)	6.25 (≈ 11 µM)	25.0 (≈ 44 µM)	25.0 (≈ 44 µM)	> 100.0	25.0 (≈ 44 µM)	> 100.0	50.0 (≈ 88.1 µM)	> 100.0	Solubility (Solubility; benzene): Easily soluble; Solubility (Solubility; ethyl ether): Sparingly soluble; MIC [4]: 12.5 µg/mL (≈ 22 µM); MIC (Bacillus cereus): 100.0 µg/mL (≈ 176 µM); MIC (Corynebacterium xerosis): 25.0 µg/mL (≈ 44 µM); MIC (Brucella abortus): 50.0 µg/mL (≈ 88.1 µM); MIC (Bacillus subtilis): 25.0 µg/mL (≈ 44 µM); MIC (Saccharomyces cerevisiae): > 100.0 µg/mL; MIC (Mycobacterium phlei): > 100.0 µg/mL; MIC (Aspergillus niger): > 100.0 µg/mL; MIC (Klebsiella pneumoniae): 50.0 µg/mL (≈ 88.1 µM); MIC (Pseudomonas aeruginosa): > 100.0 µg/mL; MIC (Mycobacterium sp. 607): > 100.0 µg/mL; MIC (Serratia marcescens): > 100.0 µg/mL; MIC (Streptococcus faecalis): > 100.0 µg/mL; MIC [6]: 3.125 µg/mL (≈ 5.51 µM); MIC [7]: > 100.0 µg/mL; MIC (Escherichia coli): > 100.0 µg/mL; MIC (Penicillium glaucum): > 100.0 µg/mL; MIC (Streptococcus pyogenes): 25.0 µg/mL (≈ 44 µM)
COC1=C(C)C(=O)C2=C(C1=O)[C@H](CNC(=O)C(C)=O)N1C[C@@H]3[C@@H](O)c4c(O)c(C)c(OC)c(O)c4[C@H]([C@@H]1C2)N3C [saframycin E]	> 100.0	100.0 (≈ 180 µM)	Sparingly soluble	Sparingly soluble	Sparingly soluble	Easily soluble	Insoluble	Insoluble	> 100.0	> 100.0	> 100.0	50.0 (≈ 90 µM)	12.5 (≈ 22.5 µM)	100.0 (≈ 180 µM)	100.0 (≈ 180 µM)	> 100.0	100.0 (≈ 180 µM)	> 100.0	25.0 (≈ 45 µM)	> 100.0	Solubility (Solubility; pyridine): Easily soluble; MIC [4]: 25.0 µg/mL (≈ 45 µM); MIC (Bacillus cereus): 25.0 µg/mL (≈ 45 µM); MIC (Corynebacterium xerosis): 25.0 µg/mL (≈ 45 µM); MIC (Brucella abortus): 25.0 µg/mL (≈ 45 µM); MIC (Bacillus subtilis): 100.0 µg/mL (≈ 180 µM); MIC (Saccharomyces cerevisiae): > 100.0 µg/mL; MIC (Mycobacterium phlei): 25.0 µg/mL (≈ 45 µM); MIC (Aspergillus niger): > 100.0 µg/mL; MIC (Klebsiella pneumoniae): 50.0 µg/mL (≈ 90 µM); MIC (Pseudomonas aeruginosa): > 100.0 µg/mL; MIC (Mycobacterium sp. 607): 100.0 µg/mL (≈ 180 µM); MIC (Serratia marcescens): > 100.0 µg/mL; MIC (Streptococcus faecalis): > 100.0 µg/mL; MIC [6]: 100.0 µg/mL (≈ 180 µM); MIC [7]: 100.0 µg/mL (≈ 180 µM); MIC (Escherichia coli): > 100.0 µg/mL; MIC (Penicillium glaucum): > 100.0 µg/mL; MIC (Streptococcus pyogenes): > 100.0 µg/mL
COC1=C(C)C(=O)C2=C(C1=O)[C@H](CNC(=O)C(C)=O)N1C[C@H]3C(=O)c4c(O)c(C)c(OC)c(O)c4[C@@H]([C@@H]1C2)N3C [saframycin D]	> 100.0	50.0 (≈ 90.3 µM)	Sparingly soluble	Easily soluble	Sparingly soluble	Easily soluble	Insoluble	Insoluble	> 100.0	> 100.0	> 100.0	50.0 (≈ 90.3 µM)	50.0 (≈ 90.3 µM)	50.0 (≈ 90.3 µM)	25.0 (≈ 45.2 µM)	> 100.0	50.0 (≈ 90.3 µM)	> 100.0	50.0 (≈ 90.3 µM)	> 100.0	Solubility (Solubility; ethyl ether): Sparingly soluble; Solubility (Solubility; pyridine): Easily soluble; MIC (Bacillus cereus): 100.0 µg/mL (≈ 181 µM); MIC (Corynebacterium xerosis): 6.25 µg/mL (≈ 11.3 µM); MIC (Brucella abortus): 25.0 µg/mL (≈ 45.2 µM); MIC (Bacillus subtilis): 50.0 µg/mL (≈ 90.3 µM); MIC (Saccharomyces cerevisiae): > 100.0 µg/mL; MIC (Mycobacterium phlei): 50.0 µg/mL (≈ 90.3 µM); MIC (Aspergillus niger): > 100.0 µg/mL; MIC (Klebsiella pneumoniae): 100.0 µg/mL (≈ 181 µM); MIC (Pseudomonas aeruginosa): > 100.0 µg/mL; MIC (Mycobacterium sp. 607): 50.0 µg/mL (≈ 90.3 µM); MIC (Serratia marcescens): > 100.0 µg/mL; MIC [6]: 0.195 µg/mL (≈ 0.352 µM); MIC (Escherichia coli): > 100.0 µg/mL; MIC (Penicillium glaucum): > 100.0 µg/mL
